The nature of the series: Metabolic stability in human liver microsomes assessed as parent compound remaining after 240 mins incubation by LC-MS/MS analysis. It is filed as ADME, Microsome. As to conditions: read-out: Stability. For orientation: Liver microsomes are vesicles of endoplasmic reticulum, rich in cytochrome P450 enzymes.

Regarding `CS(=O)(=O)N1CCC[C@H](NC(=O)[C@H](CCC2CCCCC2)NC(=O)c2ccc(CNC(=O)c3cnn(-c4ccccc4)c3N)cc2)C1`, the remaining at 4 h came to 44%.

As to `CS(=O)(=O)N1CCCC(NC(=O)[C@H](CCC2CCCCC2)NC(=O)c2ccc(CNC(=O)c3cnc4ccccn34)cc2)C1` (mixture of isomers) [SR-302], the remaining at 4 h was 44%.
